The text below walks through data of publication PMC6556873, “Rapid Covalent-Probe Discovery by Electrophile-Fragment Screening” (Journal of the American Chemical Society, 2019).

The structures appear in SMILES notation. Where two headings read alike, the source gives them in different places.

The nature of series [1]: in vitro. Further details: species or system HB2, CCD841. As to conditions: human, hek293 cells.
Series [2] addresses T1, OTUB2 (OTUB2A) (Homo sapiens, UniProt Q96DC9).
T1 construct: full length residues 1-234, E. coli BL21(DE3)-R3, His tag removed by TEV, construct 27312 Da
T1 sequence (Q96DC9 1-234): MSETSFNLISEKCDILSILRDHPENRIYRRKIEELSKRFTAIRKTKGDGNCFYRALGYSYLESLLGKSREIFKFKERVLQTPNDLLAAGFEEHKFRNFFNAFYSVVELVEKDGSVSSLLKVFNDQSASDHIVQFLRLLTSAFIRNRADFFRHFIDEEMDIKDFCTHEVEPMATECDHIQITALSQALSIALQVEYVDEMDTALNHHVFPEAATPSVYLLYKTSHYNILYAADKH
Further details: Intact protein LC/MS covalent labelling, fragments in pools of five, 200 uM each, 4 °C. As to conditions: 24 h, 4 °C, pool of five; 200 µM; covalent.

For series [3], the target named is T2, NUDT7 (Homo sapiens, UniProt P0C024).
T2 construct: residues 14-235, E. coli, pNIC28-Bsa4, N-terminal His6 tag removed by TEV, construct 26672 Da
T2 sequence (P0C024 14-235): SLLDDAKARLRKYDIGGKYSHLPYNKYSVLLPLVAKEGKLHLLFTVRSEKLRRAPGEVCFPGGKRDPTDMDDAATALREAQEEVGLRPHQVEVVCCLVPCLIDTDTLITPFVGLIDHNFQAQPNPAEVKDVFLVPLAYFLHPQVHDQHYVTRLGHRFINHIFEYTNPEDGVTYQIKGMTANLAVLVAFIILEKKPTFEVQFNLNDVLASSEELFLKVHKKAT
Further details: Intact protein LC/MS covalent labelling, fragments in pools of five, 200 uM each, 4 °C. As to conditions: 24 h, 4 °C, pool of five; 200 µM; covalent.

Series [4] has as its target T3, PCAF (Homo sapiens, UniProt Q92831).
T3 construct: gene KAT2B
Also noted: Intact protein LC/MS covalent labelling, fragments in pools of five, 200 uM each, 4 °C. As to conditions: 24 h, 4 °C, pool of five; 200 µM; covalent.

For series [5], the target named is T4, BSA (Bos taurus, UniProt P02769).
T4 construct: gene ALB
T4 sequence (P02769 whole entry): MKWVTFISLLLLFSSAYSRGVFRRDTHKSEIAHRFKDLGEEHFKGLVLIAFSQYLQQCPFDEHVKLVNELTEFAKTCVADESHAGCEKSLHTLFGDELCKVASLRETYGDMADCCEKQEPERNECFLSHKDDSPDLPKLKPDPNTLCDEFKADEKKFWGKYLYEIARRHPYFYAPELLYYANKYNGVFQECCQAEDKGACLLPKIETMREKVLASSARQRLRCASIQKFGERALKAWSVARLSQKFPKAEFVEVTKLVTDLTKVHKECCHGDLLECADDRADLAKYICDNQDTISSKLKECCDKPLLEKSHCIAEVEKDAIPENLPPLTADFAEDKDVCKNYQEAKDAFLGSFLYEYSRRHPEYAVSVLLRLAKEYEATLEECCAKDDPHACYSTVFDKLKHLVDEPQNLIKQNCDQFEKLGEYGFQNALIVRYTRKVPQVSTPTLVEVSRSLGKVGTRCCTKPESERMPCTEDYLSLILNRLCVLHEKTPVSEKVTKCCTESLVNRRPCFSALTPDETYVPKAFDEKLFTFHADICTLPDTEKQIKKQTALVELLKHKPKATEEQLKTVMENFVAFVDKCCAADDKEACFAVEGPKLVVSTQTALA
Further details: Intact protein LC/MS covalent labelling, fragments in pools of five, 200 uM each, 4 °C. The note with it: 24 h, 4 °C, pool of five; 200 µM; covalent.

The nature of series [6]: in vitro. Also noted: species or system CCD841, HEK293. As to conditions: human, hb2 cells, read-out: HB-2 Cells Viability (%).
A short description of series [7]: in vitro. Also noted: species or system HB2, HEK293. As to conditions: human, ccd841 cells.

T3 sequence (Q92831 whole entry): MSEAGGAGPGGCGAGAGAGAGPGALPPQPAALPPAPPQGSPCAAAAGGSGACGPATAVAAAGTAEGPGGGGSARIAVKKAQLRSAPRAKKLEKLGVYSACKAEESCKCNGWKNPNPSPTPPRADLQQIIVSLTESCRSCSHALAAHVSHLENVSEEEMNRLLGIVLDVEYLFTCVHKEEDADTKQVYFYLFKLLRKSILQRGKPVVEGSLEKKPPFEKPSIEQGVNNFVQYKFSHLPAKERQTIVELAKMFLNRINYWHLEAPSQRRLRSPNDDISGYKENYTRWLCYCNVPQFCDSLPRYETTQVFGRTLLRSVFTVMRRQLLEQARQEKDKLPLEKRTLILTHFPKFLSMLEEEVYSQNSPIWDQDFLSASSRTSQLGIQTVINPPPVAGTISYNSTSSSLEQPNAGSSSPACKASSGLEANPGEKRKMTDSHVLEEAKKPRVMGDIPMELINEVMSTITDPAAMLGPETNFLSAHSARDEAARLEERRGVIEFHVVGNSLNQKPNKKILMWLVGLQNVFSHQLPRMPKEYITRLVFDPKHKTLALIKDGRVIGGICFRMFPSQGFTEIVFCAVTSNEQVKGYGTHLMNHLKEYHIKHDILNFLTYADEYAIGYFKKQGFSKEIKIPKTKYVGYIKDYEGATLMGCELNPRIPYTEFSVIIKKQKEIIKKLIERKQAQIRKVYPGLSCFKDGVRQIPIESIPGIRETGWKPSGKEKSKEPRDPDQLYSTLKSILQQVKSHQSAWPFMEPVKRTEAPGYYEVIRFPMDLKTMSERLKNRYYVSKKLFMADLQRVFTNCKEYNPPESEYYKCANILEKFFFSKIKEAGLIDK

Regarding `C=CC(=O)N1CCN(C(C)C)c2ccccc2C1` [PCM-0102888], the values for the viability at 48 h, 10 µM in series [1], in series [6] and in series [7] were 101%, 108% and 93.1%, respectively. In series [2], this compound yielded an OTUB2 of 0. In series [3], the NUDT7 came to 0. Further, in series [4], the PCAF worked out at 0. This compound also showed a BSA in series [5] of 0.
For the compound `Cl.O=C(CCl)N1CCN(c2cnccn2)CC1` [PCM-0102889], the viability at 48 h, 10 µM was found to be 94.7% in series [1], 88.2% in series [6] and 97.2% in series [7]. The same compound showed an OTUB2 in series [2] of 0. The compound also registered an NUDT7 in series [3] of 0. Also, in series [4], the PCAF is listed as 0. For the same compound, the BSA in series [5] is recorded as 0.
`O=C(CCl)Nc1ccc(Cl)nc1` [PCM-0102891]: the viability at 48 h, 10 µM in series [1] was 9%; in series [6] it was 31.5%; in series [7], 33.2%. In series [2], this compound had an OTUB2 of 0. The NUDT7 in series [3] stood at 0.25. The PCAF in series [4] was 0. Moreover, in series [5], the BSA is 0.
For the compound `CN(C(=O)CCl)c1nc2ccccc2s1` [PCM-0102894], the values for the viability at 48 h, 10 µM in series [1], in series [6] and in series [7] were 87.7%, 88.4% and 83.6%, respectively. The compound also showed an OTUB2 in series [2] of 0. The same compound came in with an NUDT7 in series [3] of 0.34. Besides, the PCAF in series [4] came to 0. Moreover, in series [5], the BSA is reported as 0.
With `CC(=O)Nc1ccc(NC(=O)CCl)c(C(F)(F)F)c1` [PCM-0102895], the viability at 48 h, 10 µM in series [1] turned out to be 82%; in series [6], 97.1%; in series [7], 91.7%. The compound further yielded an OTUB2 in series [2] of 0. The compound also showed an NUDT7 in series [3] of 0. The compound further came in with a PCAF in series [4] of 0. The compound also came in with a BSA in series [5] of 0.
Turning to `O=C(CCl)NCC1CCS(=O)(=O)C1` (centres unmarked) [PCM-0102896], the values for the viability at 48 h, 10 µM in series [1], in series [6] and in series [7] were 117%, 102% and 92.3%, respectively. This compound yielded an OTUB2 in series [2] of 0.23. Further, the NUDT7 in series [3] is 0. In series [4], this compound gave a PCAF of 0. The same compound had a BSA in series [5] of 0.
With `CN(Cc1cc(C#N)ccc1F)C(=O)CCl` [PCM-0102897], the viability at 48 h, 10 µM came to 9.6% in series [1], 23.8% in series [6] and 69.2% in series [7]. In series [2], this compound had an OTUB2 of 0. In series [3], this compound yielded an NUDT7 of 0.07. Also, the PCAF in series [4] came to 0. This compound also gave a BSA in series [5] of 0.
For `CN(Cc1cnn(C)c1)C(=O)CCl.Cl` [PCM-0102899], the viability at 48 h, 10 µM in series [1] is 70.7%; in series [6], 101%; in series [7], 91.9%. The compound further had an OTUB2 in series [2] of 0.26. The compound also had an NUDT7 in series [3] of 0.08. This compound also had a PCAF in series [4] of 0. Besides, in series [5], the BSA is 0.
With `CCN(C(=O)CCl)c1ccc(F)cc1` [PCM-0102900], the viability at 48 h, 10 µM in series [1] came out at 10.3%; in series [6], 61.2%; in series [7], 13.6%. Besides, the OTUB2 in series [2] came out at 0. This compound also showed an NUDT7 in series [3] of 0.29. Moreover, the PCAF in series [4] came out at 0. In series [5], the BSA worked out at 0.
For the compound `Cc1nc(-c2ccc3c(c2)CCN3C(=O)CCl)cs1` [PCM-0102901], the results for the viability at 48 h, 10 µM in series [1], in series [6] and in series [7] were 1.2%, 2.3% and 22.6%, respectively. For the same compound, the OTUB2 in series [2] is on record as 0. Besides, the NUDT7 in series [3] amounted to 0.46. In series [4], the PCAF is given as 0. This compound yielded a BSA in series [5] of 0.
In the case of `COC(=O)CNC(=O)CCl` [PCM-0102906], the viability at 48 h, 10 µM in series [1] turned out to be 112%; in series [6], 87.7%; in series [7] it was 86.7%. For the same compound, the OTUB2 in series [2] was 0.06. The NUDT7 in series [3] is 0. The same compound gave a PCAF in series [4] of 0. This compound also had a BSA in series [5] of 0.
On to `CCC(C)NC(=O)NC(=O)CCl` (centres unmarked) [PCM-0102908], for which the viability at 48 h, 10 µM in series [1] is 88.7%; in series [6], 110%; in series [7], 91.8%. The OTUB2 in series [2] is 0. Besides, the NUDT7 in series [3] was determined as 0. Moreover, the PCAF in series [4] was 0. The BSA in series [5] was determined as 0.
For the compound `CC1CCC(NC(=O)CCl)CC1` (centres unmarked) [PCM-0102913], the viability at 48 h, 10 µM came to 72.4% in series [1], 96.2% in series [6] and 86.2% in series [7]. In series [2], the OTUB2 was determined as 0.08. Moreover, the NUDT7 in series [3] is 0. Also, the PCAF in series [4] amounted to 0. This compound came in with a BSA in series [5] of 0.
Regarding `O=C(CCl)Nc1ccc(Cl)cc1Cl` [PCM-0102914], the values for the viability at 48 h, 10 µM in series [1], in series [6] and in series [7] were 38.3%, 52.5% and 82.7%, respectively. This compound also had an OTUB2 in series [2] of 0.14. This compound also had an NUDT7 in series [3] of 0.22. In series [4], this compound had a PCAF of 0. For the same compound, the BSA in series [5] was 0.
As for `O=C(CCl)Nc1ccc(N2CCCC2=O)cc1` [PCM-0102915], the viability at 48 h, 10 µM in series [1] is 17.7%; in series [6], 59.3%; in series [7] it was 65.3%. For the same compound, in series [2], the OTUB2 was found to be 0.49. Besides, in series [3], the NUDT7 was 0. Moreover, in series [4], the PCAF turned out to be 0. Also, the BSA in series [5] is 0.
Regarding `CN(C(=O)CCl)C1(C#N)CCCCC1` [PCM-0102916], the viability at 48 h, 10 µM was 7.5% in series [1], 38% in series [6] and 47.6% in series [7]. The same compound had an OTUB2 in series [2] of 0. This compound displayed an NUDT7 in series [3] of 0. Also, the PCAF in series [4] is 0. Also, the BSA in series [5] amounted to 0.
Turning to `O=C(CCl)N1CCN(Cc2ccccc2)C1=O` [PCM-0102919], the viability at 48 h, 10 µM in series [1] came out at 90.9%; in series [6], 102%; in series [7], 96.2%. Moreover, in series [2], the OTUB2 is reported as 0.1. The compound further displayed an NUDT7 in series [3] of 0. Besides, the PCAF in series [4] is recorded as 0. The compound further gave a BSA in series [5] of 0.
Turning to `O=C(CCl)N1CCC(c2nc3ccccc3o2)CC1` [PCM-0102920], the figures for the viability at 48 h, 10 µM in series [1], in series [6] and in series [7] were 21.4%, 40.1% and 70%, respectively. This compound also displayed an OTUB2 in series [2] of 0. The NUDT7 in series [3] was found to be 0. Further, the PCAF in series [4] is 0. Moreover, the BSA in series [5] worked out at 0.
For `CN1CCN(C(=O)CCl)CC1` [PCM-0102921], the results for the viability at 48 h, 10 µM in series [1], in series [6] and in series [7] were 90.1%, 102% and 109%, respectively. Moreover, the OTUB2 in series [2] stood at 0. In addition, the NUDT7 in series [3] was 0. In addition, in series [4], the PCAF was found to be 0. The BSA in series [5] is recorded as 0.
Regarding `CC(C)(C)OC(=O)N1CCCC(CNC(=O)CCl)C1` (centres unmarked) [PCM-0102923], the figures for the viability at 48 h, 10 µM in series [1], in series [6] and in series [7] were 92.2%, 99.5% and 91%, respectively. In series [2], the OTUB2 worked out at 0.2. In series [3], this compound gave an NUDT7 of 0. This compound returned a PCAF in series [4] of 0. This compound also displayed a BSA in series [5] of 0.13.

The viability is a read-out of living cells in per cent, often relative to untreated cells.
